Measured values as given in US9382204B2, “Inhibitors targeting the DNA-binding domain of human STAT3 for treatment of metastatic cancers” (Indiana University Research and Technology Corporation, priority 2013, dated 2016).

Experiments:
STAT3 = STAT3 dimerization (STAT3c non-reducing PAGE, HA/FLAG co-immunoprecipitation) in H1299 cells; assay type: cell-based, human; settings: 20 μM
From the text: To eliminate the possibility that inS3-54 works by off-targeting to the SH2 domain, we tested if inS3-54 inhibits STAT3 dimerization using FLAG-STAT3c, which forms spontaneous homo-dimers via formation of intermolecular disulfide bond.
However, inS3-54 had no effect on production of dimeric STAT3c separated using non-reducing SDS-PAGE or non-denaturing PAGE (FIG. 6B) while S3I-201, a STAT3 inhibitor that binds to the SH2 domain, inhibited STAT3c dimerization (FIG. 6B). To confirm this observation, we performed a co-immunoprecipitation analysis of HA and FLAG-tagged STAT3.

[1] = tested on: A549 and MDA-MB-231 cells; experiment: Luminescence-based glutathione alkylation assay (GSH-Glo); assay type: cell-based, human; settings: 20 μM inS3-54 48 hours, 15 mM iodoacetamide 30 minutes
From the text: FIG. 5. Effect of inS3-54 glutathione level. […] (***p<0.001).
To further eliminate the possibility that inS3-54 has alkylating activity, we performed luminescence-based glutathione alkylation assay.

Row | SMILES | production of dimeric STAT3c (STAT3; 24 hrs, non-reducing SDS-PAGE or non-denaturing PAGE) | co-immunoprecipitation between HA- and FLAG-tagged STAT3 (STAT3; H1299 cells) | glutathione level [1]
1 | Cc1ccc(S(=O)(=O)OCC(=O)Nc2ccc(C(=O)O)c(O)c2)cc1 [Compound S3I-201, reference compound] | inhibited | inhibited | –
2 | NC(=O)CI [iodoacetamide, reference compound] | – | – | significantly reduced
